This note sets out measurements from patent publication US9018383B2, “Acylamino-substituted cyclic carboxylic acid derivatives and their use as pharmaceuticals” (Sanofi, priority 2009, dated 2015).

Molecules are shown by their SMILES. Where only a bound is given, the exact number is not on record here.

For the test, the target named is human Edg-2 receptor (Homo sapiens, UniProt Q92633). Nature of the test: Determination of Edg-2 receptor inhibition by FLIPR measurements (LPA-mediated calcium liberation). The class given is cell-based. The following applies: CHO cells overexpressing human Edg-2 receptor, LPA 100 nM, fluo-4 calcium fluorescence; read-out: Inhibitory concentrations IC50 for inhibition of the Edg-2 receptor. As to the method: A) Determination of Edg-2 Receptor Inhibition by Fluorescence Imaging Plate Reader (FLIPR) Measurements
Chain of human Edg-2 receptor (Q92633 whole entry): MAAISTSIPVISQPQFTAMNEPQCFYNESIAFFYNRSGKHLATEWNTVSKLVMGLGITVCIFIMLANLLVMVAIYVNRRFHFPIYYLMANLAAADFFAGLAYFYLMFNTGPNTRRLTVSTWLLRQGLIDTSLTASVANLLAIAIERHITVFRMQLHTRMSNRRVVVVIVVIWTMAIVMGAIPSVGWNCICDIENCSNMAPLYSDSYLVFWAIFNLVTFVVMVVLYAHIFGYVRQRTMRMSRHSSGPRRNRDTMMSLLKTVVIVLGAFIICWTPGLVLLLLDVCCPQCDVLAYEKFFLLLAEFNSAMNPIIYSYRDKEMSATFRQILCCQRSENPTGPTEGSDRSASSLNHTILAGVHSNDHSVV
The inhibition of the Edg-2 receptor (LPA1 receptor) by the compounds of the invention was quantified by the inhibitory effect on the LPA-mediated calcium liberation in a cell-based calcium fluorescence assay by use of Chinese hamster ovarian (CHO) cells in which the human Edg-2 receptor was stably overexpressed (Flp-In system, Invitrogen). […] Changes in intracellular calcium were determined by fluorescence measurement with the calcium-sensitive dye fluo-4 (Invitrogen) in a fluorescence imaging plate reader (FLIPR, […]).
CHO cells stably overexpressing the human Edg-2 receptor were seeded (40.000 per well) in black clear-bottomed poly-D-lysine-coated 96 well plates (Becton Dickinson, Biocoat cellware) approximately 18-24 h prior to the experiments. Cells were grown in an incubator at 37° C., 5% carbon dioxide and 95% humidity in cell culture media based on F-12 glutamax media (Gibco, #31765) supplemented with 1% (vol/vol) penicilline/streptomycine (PAN, #P06-07100), 10% (vol/vol) fetal calf serum (FCS, PAA, #A15-151) and hygromycin B (Invitrogen, #10687-010) 300 mg/l (final concentrations).
Prior to the FLIPR experiment, cells were loaded with fluo-4 acetoxymethyl ester (fluo-4 AM, Invitrogen, #F14202) for 60 min in an incubator at 37° C., 5% carbon dioxide and 95% humidity in dye-loading buffer consisting of Hanks' Balanced Salt Solution (HBSS, Invitrogen, #14065049) supplemented with fluo-4 AM at 2 μM (all data given for final concentration), Pluronic® F-127 0.05% (vol/vol) (Invitrogen, #P-3000 MP), HEPES 20 mM (Gibco, #15630), probenecid 2.5 mM (Sigma, #P-8761) and bovine serum albumin 0.05% (BSA, Sigma, #A-6003), adjusted to pH 7.5 with sodium hydroxide. During cell loading, fluo-4 AM is cleaved by intracellular esterase resulting in trapping of the dye fluo-4 within the cells. Loading was terminated by washing of the cells in a cell washer (Tecan Power washer) three times with the buffer specified afore but without fluo-4 AM and BSA. This latter buffer was also used as the buffer in the subsequent cell fluorescence measurements.
The dye-loaded and washed cells were pre-incubated for approximately 5 min with various concentrations of the test compound added as a solution in DMSO (0.3% vol/vol maximum final concentration of DMSO), or with DMSO in the respective concentration only (positive control). Subsequent addition of LPA (18:1, 1-oleoyl-sn-glycerol 3-phosphate; 100 nM final concentration) leads to liberation of intracellular calcium from internal stores resulting in a large transient increase of the fluo-4 fluorescence signal which was monitored over approximately 3 min. The percent inhibition caused by the test compound was determined from the maximum fluorescence response after LPA addition to cells pre-incubated with the compound as compared to the maximum fluorescence response after LPA addition to cells pre-incubated with DMSO only. All fluorescence values were corrected for the baseline fluorescence values obtained with cells which were pre-incubated with DMSO only and were not treated with LPA (baseline control). All measurements were performed in triplicate. From the percent inhibitions the inhibitory concentration IC50 was determined.
As to `COc1ncc(C(=O)N[C@]2(C(=O)O)CC[C@@H](C)CC2)cc1OCCc1cc(OC(F)(F)F)ccc1F` [Example 82, trans-1-({5-[2-(2-Fluoro-5-trifluoromethoxy-phenyl)-ethoxy]-6-methoxy-pyridine-3-carbonyl}-amino)-4-methyl-cyclohexanecarboxylic acid], the IC50 is below 100 nM.

In the case of `COc1ncc(C(=O)N[C@]2(C(=O)O)CC[C@@H](C)CC2)cc1OCCc1ccccc1` [Example 83, trans-1-{[6-Methoxy-5-(2-phenyl-ethoxy)-pyridine-3-carbonyl]-amino}-4-methyl-cyclohexanecarboxylic acid], the IC50 was below 100 nM.

`COc1ncc(C(=O)N[C@]2(C(=O)O)CC[C@@H](C)CC2)cc1OCCc1cc(C)ccc1C` [Example 84, trans-1-({5-[2-(2,5-Dimethyl-phenyl)-ethoxy]-6-methoxy-pyridine-3-carbonyl}-amino)-4-methyl-cyclohexanecarboxylic acid]: the IC50 lay in the range of 1000 to 30000 nM.

For the compound `COc1ncc(C(=O)N[C@]2(C(=O)O)CC[C@@H](C)CC2)cc1OCCc1cccc(Cl)c1` [Example 85, trans-1-({5-[2-(3-chloro-phenyl)-ethoxy]-6-methoxy-pyridine-3-carbonyl}-amino)-4-methyl-cyclohexanecarboxylic acid], the IC50 was below 100 nM.

`COc1ncc(C(=O)N[C@]2(C(=O)O)CC[C@H](C)CC2)cc1OCCc1cc(C)ccc1C` [Example 86, cis-1-({5-[2-(2,5-Dimethyl-phenyl)-ethoxy]-6-methoxy-pyridine-3-carbonyl}-amino)-4-methyl-cyclohexanecarboxylic acid]: the IC50 was in the range of 1000 to 30000 nM.

On to `COc1ncc(C(=O)NC2(C(=O)O)CCCCCC2)cc1OCCc1cc(C)ccc1C` [Example 87, 1-({5-[2-(2,5-Dimethyl-phenyl)-ethoxy]-6-methoxy-pyridine-3-carbonyl}-amino)-cycloheptanecarboxylic acid], for which the IC50 is 1000 to 30000 nM.

As to `COc1ncc(C(=O)NC2(C(=O)O)CCCCCC2)cc1OCCc1ccccc1` [Example 88, 1-{[5-(2-Phenyl-ethoxy)-6-methoxy-pyridine-3-carbonyl]-amino}-cycloheptanecarboxylic acid], the IC50 was below 100 nM.

For the compound `COc1ncc(C(=O)N[C@]2(C(=O)O)CC[C@@H](C(C)(C)C)CC2)cc1OCCc1cccc(C)c1` [Example 89, trans-4-tert-Butyl-1-{[6-methoxy-5-(2-m-tolyl-ethoxy)-pyridine-3-carbonyl]-amino}-cyclohexanecarboxylic acid], the IC50 lay within 1000 to 30000 nM.

Turning to `COc1ncc(C(=O)N[C@]2(C(=O)O)CC[C@@H](C)CC2)cc1OCCc1cccc(CCO)c1` [Example 90, trans-1-[(5-{2-[3-(2-Hydroxy-ethyl)-phenyl]-ethoxy}-6-methoxy-pyridine-3-carbonyl)-amino]-4-methyl-cyclohexanecarboxylic acid], the IC50 was below 100 nM.

For `COc1ncc(C(=O)N[C@]2(C(=O)O)CC[C@H](C)CC2)cc1OCCc1cccc(CCO)c1` [Example 91, cis-1-[(5-{2-[3-(2-Hydroxy-ethyl)-phenyl]-ethoxy}-6-methoxy-pyridine-3-carbonyl)-amino]-4-methyl-cyclohexanecarboxylic acid], the IC50 was below 100 nM.

Turning to `COc1ncc(C(=O)NC2(C(=O)O)CCCCCC2)cc1-c1cccc(C#N)c1` [Example 92, 1-{[5-(3-Cyano-phenyl)-6-methoxy-pyridine-3-carbonyl]-amino}-cycloheptanecarboxylic acid], the IC50 fell in the range of 1000 to 30000 nM.

Turning to `COc1ncc(C(=O)NC2(C(=O)O)CCCCCC2)cc1-c1cccc(NS(=O)(=O)N(C)C)c1` [Example 93], the IC50 is 1000 to 30000 nM.

`COc1ncc(C(=O)NC2(C(=O)O)CCCCCC2)cc1-c1cccc(Cl)c1` [Example 94, 1-{[5-(3-chloro-phenyl)-6-methoxy-pyridyl-3-carbonyl]-amino}-cycloheptanecarboxylic acid]: the IC50 fell in the range of 100 to 1000 nM.

For `COc1ncc(C(=O)NC2(C(=O)O)CCCCCC2)cc1-c1cccc(C(C)C)c1` [Example 95], the IC50 was in the range of 100 to 1000 nM.

With `COc1ncc(C(=O)NC2(C(=O)O)CCCCCC2)cc1-c1cccc(OC(F)(F)F)c1` [Example 96], the IC50 is below 100 nM.

On to `COc1ncc(C(=O)NC2(C(=O)O)CCCCCC2)cc1-c1cccc(Cl)c1Cl` [Example 97], for which the IC50 was below 100 nM.

Regarding `COc1ncc(C(=O)NC2(C(=O)O)CCCCCC2)cc1-c1cc(F)c(F)c(F)c1` [Example 98], the IC50 is below 100 nM.

As to `COc1ncc(C(=O)NC2(C(=O)O)CCCCCC2)cc1-c1cc(Cl)cc(C(F)(F)F)c1` [Example 99], the IC50 was below 100 nM.

For `COc1ncc(C(=O)NC2(C(=O)O)CCCCCC2)cc1-c1cccc(C(F)(F)F)c1` [Example 100], the IC50 was below 100 nM.

`COc1ccc(C(=O)NC2(C(=O)O)CCCCCC2)cc1-c1cccc(NS(=O)(=O)N(C)C)c1` [Example 103]: the IC50 lay within 100 to 1000 nM.

In the case of `COc1ccc(C(=O)NC2(C(=O)O)CCCCCC2)cc1-c1cccc(C(C)C)c1` [Example 105], the IC50 is 100 to 1000 nM.

`COc1ccc(C(=O)NC2(C(=O)O)CCCCCC2)cc1-c1cccc(C#N)c1` [Example 106]: the IC50 fell in the range of 1000 to 30000 nM.

For the compound `COc1ccc(C(=O)NC2(C(=O)O)CCCCCC2)cc1OCCc1cccc(CCO)c1` [Example 107, 1-(3-{2-[3-(2-Hydroxy-ethyl)-phenyl]-ethoxy}-4-methoxy-benzoylamino)-cycloheptanecarboxylic acid], the IC50 was below 100 nM.

Consider `COc1ccc(C(=O)NC2(C(=O)O)CCCCCCC2)cc1OCCc1cccc(CCO)c1` [Example 108, 1-(3-{2-[3-(2-Hydroxy-ethyl)-phenyl]-ethoxy}-4-methoxy-benzoylamino)-cyclooctanecarboxylic acid], for which the IC50 is below 100 nM.

For the compound `COc1ccc(C(=O)N[C@]2(C(=O)O)CC[C@H](C)CC2)cc1OCCc1cccc(CCO)c1` [Example 109, cis-1-(3-{2-[3-(2-Hydroxy-ethyl)-phenyl]-ethoxy}-4-methoxy-benzoylamino)-4-methyl-cyclohexanecarboxylic acid], the IC50 was below 100 nM.

In the case of `COc1ccc(C(=O)N[C@]2(C(=O)O)CC[C@@H](C)CC2)cc1OCCc1cccc(CCO)c1` [Example 110, trans-1-(3-{2-[3-(2-Hydroxy-ethyl)-phenyl]-ethoxy}-4-methoxy-benzoylamino)-4-methyl-cyclohexanecarboxylic acid], the IC50 was below 100 nM.

As for `CC[C@H]1CC[C@](NC(=O)c2ccc(OC)c(OCCc3cccc(CCO)c3)c2)(C(=O)O)CC1` [Example 111, cis-4-Ethyl-1-(3-{2-[3-(2-hydroxy-ethyl)-phenyl]-ethoxy}-4-methoxy-benzoylamino)-cyclohexanecarboxylic acid], the IC50 was below 100 nM.

`CC[C@H]1CC[C@@](NC(=O)c2ccc(OC)c(OCCc3cccc(CCO)c3)c2)(C(=O)O)CC1` [Example 112, trans-4-Ethyl-1-(3-{2-[3-(2-hydroxy-ethyl)-phenyl]-ethoxy}-4-methoxy-benzoylamino)-cyclohexanecarboxylic acid]: the IC50 is below 100 nM.

Consider `COCCOc1ccc(C(=O)N[C@]2(C(=O)O)CC[C@H](C)CC2)cc1OCCc1cccc(Cl)c1` [Example 113, cis-1-[3-[2-(3-Chloro-phenyl)-ethoxy]-4-(2-methoxy-ethoxy)-benzoylamio]-4-methyl-cyclohexanecarboxylic acid], for which the IC50 lay in the range of 100 to 1000 nM.

Regarding `COCCOc1ccc(C(=O)N[C@]2(C(=O)O)CC[C@@H](C)CC2)cc1OCCc1cccc(Cl)c1` [Example 114, trans-1-[3-[2-(3-Chloro-phenyl)-ethoxy]-4-(2-methoxy-ethoxy)-benzoylamino]-4-methyl-cyclohexanecarboxylic acid], the IC50 fell in the range of 100 to 1000 nM.

As for `COCCOc1ccc(C(=O)NC2(C(=O)O)CCCCCC2)cc1OCCc1cccc(Cl)c1` [Example 115, 1-[3-[2-(3-Chloro-phenyl)-ethoxy]-4-(2-methoxy-ethoxy)-benzoylamino]-cycloheptanecarboxylic acid], the IC50 fell in the range of 1000 to 30000 nM.
